In patent publication US5393875A, “Amino acid derivatives having renin inhibiting activity” (Hoffmann-La Roche Inc., priority 1991, dated 1995):

Experiments:
human renin = molecular target: T1, human renin (Homo sapiens, UniProt P00797); test: Test A: in vitro test with pure human renin; assay type: biochemical; conditions: human tetradecapeptide substrate, pH 7.4, 3 hours at 37° C., angiotensin I by RIA
T1 sequence (P00797 67-406): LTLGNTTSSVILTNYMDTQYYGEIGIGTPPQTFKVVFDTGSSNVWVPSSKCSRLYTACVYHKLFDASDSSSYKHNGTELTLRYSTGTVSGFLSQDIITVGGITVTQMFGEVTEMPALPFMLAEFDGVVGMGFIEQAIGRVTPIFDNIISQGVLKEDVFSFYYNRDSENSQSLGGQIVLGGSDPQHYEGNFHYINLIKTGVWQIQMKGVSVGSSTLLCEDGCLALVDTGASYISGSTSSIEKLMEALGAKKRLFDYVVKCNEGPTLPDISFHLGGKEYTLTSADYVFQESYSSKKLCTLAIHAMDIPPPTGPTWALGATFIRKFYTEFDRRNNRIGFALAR
Description: A. In vitro test with pure human renin
The test is carried out in Eppendorf test tubes. The incubation mixture consists of (1) 100 μl of human renin in buffer A (0.1M sodium phosphate solution, pH 7.4, containing 0.1% bovine serum albumin, 0.1% sodium azide and 1 mM ethylenediaminetetraacetic acid), sufficient for a renin activity of 2-3 ng of angiotensin I/ml/hr; (2) 145 μl of buffer A: (3) 30 μl of 10 μM human tetradecapeptide renin substrate (hTD) in 10 mM hydrochloric acid: (4) 15 μl of dimethyl sulphoxide with or without inhibitor and (5) 10 μl of a 0.03 molar solution of hydroxyquinoline sulphate in water.
The samples are incubated for three hours at 37° C. and, respectively, 4° C. in triplicate. 2×100 μl samples per experimental test tube are used in order to measure the production of angiotensin I via RIA (standard radioimmunoassay; clinical assay solid phase kit). Cross reactivities of the antibody used in the RIA are: angiotensin I 100%; angiotensin II 0.0013%; hTD (angiotensin I-Val-Ile-His-Ser-OH 0.09%. The production of angiotensin I is determined by the difference between the experiment at 37° C. and that at 4° C.
(§1) The following controls are carried out:
(a) Incubation of hTD samples without renin and without inhibitor at 37° C. and 4° C. The difference between these two values gives the base value of the angiotensin I production.
(b) Incubation of hTD samples with renin, but without inhibitor at 37° C. and 4° C. The difference between these values gives the maximal value of angiotensin I production.
In each sample the base value of the angiotensin I production is subtracted from the angiotensin I production which is determined. The difference between the maximal value and the base value gives the value of the maximal substrate hydrolysis (=100% ) by renin.
The results are given as IC50 values which denote that concentration of the inhibitor at which the enzymatic activity is inhibited by 50%. The IC50 values are determined from a linear regression curve from a logit-log plot.

renin in human plasma = molecular target: T2, renin in human plasma (Homo sapiens, UniProt P00797); test: Test B: in vitro test with human plasma; assay type: biochemical; conditions: pH 6, 3 hours at 37° C., angiotensin I by RIA
T2 construct: The test solution comprises (1) 225 μl of plasma; from tissue; host or cells: human plasma
T2 sequence (P00797 67-406): T1 sequence (P00797 67-406)
Description: B. In vitro test with human plasma
The test solution comprises (1) 225 μl of plasma, (2) 10 μl of 8-hydroxyquinoline sulphate in water, (3) 12 μl of sodium phosphate buffer (0.1M), pH 7.4, and […] of different concentrations of renin inhibitor in dimethyl sulphoxide. Tho resulting pH value (pH 6) of tho test solution is stable for the duration of the subsequent incubation. The test tubes are then incubated at 37° C. for 3 hours. The enzyme activity is expressed by determining the angiotensin I produced, which is determined using a comercially available radioimmunoassay kit (Clinical Assays, Cambridge, Mass.).
as §1
MaxP: Maximal production (maximal enzyme activity) in the absence of a renin inhibitor.
MinP: Minimal production (enzyme activity blank) in the presence of a supramaximal concentration of a renin inhibitor.
The MinP is subtracted from the respective angiotensin production in each experiment. These values are converted into percentage inhibition by comparison with the maximal enzyme activity MaxP-MinP. The degree of inhibition is expressed by the IC50 value, i.e. the concentration of inhibitor which reduces the accumulation of angiotensin I by 50%.

| IC50 (human renin) [nM] | IC50 (renin in human plasma) [nM] | Structure (SMILES) |
| --- | --- | --- |
| 0.2 | < 0.1 | COCC(=O)OCC(C)(C)S(=O)(=O)CC(Cc1ccccc1)C(=O)N[C@@H](Cc1c[nH]cn1)C(=O)N[C@@H](CC1CCCCC1)[C@@H](O)[C@@H](O)C1CC1 (single isomer, unassigned) [D, 2-[[(S or R)-2-[[(S)-1-[[(1S,2R,3S)-1-(cyclohexylmethyl)-3-cyclopropyl-2,3-dihydroxypropyl]carbamoyl]-2-imidazol-4-ylethyl]carbamoyl]-3-phenylpropyl]sulfonyl]-2-methylpropyl methoxyacetate] |
| 0.3 | 0.11 | CC(C)(C(=O)N[C@H]1C(O)O[C@H](CO)[C@@H](O)[C@@H]1O)S(=O)(=O)C[C@@H](Cc1ccccc1)C(=O)N[C@@H](Cc1c[nH]cn1)C(=O)N[C@@H](CC1CCCCC1)[C@@H](O)[C@@H](O)C1CC1 (stereo partly drawn) [B, 2-[2-[[(S)-2-[[(S)-1-[[(1S,2R,3S)-1-(Cyclohexylmethyl)-3-cyclopropyl-2,3-dihydroxypropyl]carbamoyl]-2-imidazol-4-ylethyl]carbamoyl]-3-phenylpropyl]sulfonyl]-2-methylpropionamido]-2-deoxy-D-glucopyranose] |
| 0.061 | 0.14 | COC(=O)[C@H](NC(=O)OC(C)(C)C)C(C)(C)S(=O)(=O)CC(Cc1ccccc1)C(=O)N[C@@H](Cc1c[nH]cn1)C(=O)N[C@@H](CC1CCCCC1)[C@@H](O)[C@@H](O)C1CC1 (single isomer, unassigned) [C, tert-Butyl [(S)-2-[[(S or R)-2-[[(S)-1-[[(1S,2R,3S)-1-(cyclohexylmethyl)-3-cyclopropyl-2,3-dihydroxypropyl]carbamoyl]-2-imidazol-4-ylethyl]carbamoyl]-3-phenylpropyl]sulfonyl]-1-(methoxycarbonyl)-2-methylpropyl]carbamate] |

| Structure (SMILES) | IC50 (human renin) [nM] | IC50 (renin in human plasma) [nM] |
| --- | --- | --- |
| CC(C)(C(=O)N1CCOCC1)S(=O)(=O)C[C@@H](Cc1ccccc1)C(=O)N[C@@H](Cc1c[nH]cn1)C(=O)N[C@@H](CC1CCCCC1)[C@@H](O)[C@@H](O)C1CC1 [A, (S)-N-[(1S,2R,3S)-1-(Cyclohexylmethyl)-3-cyclopropyl-2,3-dihydroxypropyl]-α-[(S)-α-[[[1-(morpholinocarbonyl)-1-methylethyl]sulfonyl]methyl]hydrocinnamamido]imadazole-4-propionamide] | 0.03 | 0.1 |
